# Reference: paper PMC9014415, “Repositioning of a Diaminothiazole Series Confirmed to Target the Cyclin-Dependent Kinase CRK12 for Use in the Treatment of African Animal Trypanosomiasis” (Journal of Medicinal Chemistry, 2022)
# Experiments:
# [1] = Mouse liver microsome stability; format: in vitro ADME; settings: intrinsic clearance
# Experimental: solubility method,5 the long shaking times appear to give solubility values that more closely reflect those made from solid samples (unpublished in-house data).
# 2.2 Microsomal stability studies
# (a) Mouse liver microsome stability. These methods have been previously reported.6
# (b) Bovine liver microsome stability. Test compounds (0.5 µM) were incubated with 0.5 mg/mL bovine liver microsomes (Xenotech LLC TM) in 50 mM potassium phosphate buffer, pH7.4 and the reaction initiated upon addition of excess NADPH (8 mg/mL in 50 mM potassium phosphate buffer, pH7.4).
# Aliquots (50 µL) of the incubation mixture were taken at time zero, 3, 6, 9, 15 and 30 min then mixed with acetonitrile (100 µL) to stop the reaction. An internal standard was added to all samples, prior to centrifugation (10 min, 1,665 g, RT) to sediment precipitated protein. Reaction plates were then sealed prior to UPLCMSMS analysis using a Quattro Premier XE (Waters corporation, USA).
# XLfit (IDBS, UK) was used to calculate the exponential decay and consequently the rate constant (k) from the ratio of peak area of test compound to internal standard at each timepoint. The rate of intrinsic clearance (CLi) of each test compound was then calculated using the following […]
# CLi(mL/min/g liver) = k x V x microsomal protein yield […]
# [2] = PK and formulation studies in Sprague Dawley rats, IM; format: in vivo; settings: rat, single IM 5 mg/kg
# Experimental: 2.4 Protein plasma binding […]
# 2.6 PK and formulation studies - male Sprague rats
# Compound 1 was dosed SC at 5 mg free base/kg (dose volume 0.2 or 1 mL/kg; dose vehicle 10% N-methyl-2- pyrrolidinone (NMP), 30% 2-pyrrolidinone, 40% PEG400, 20% deionized water or 10% DMSO, 30% PEG400 and 60% deionized water, respectively) or IM at 5 and 10 mg free base/kg (dose volume 0.2 mL/kg; dose vehicle 10% NMP, 30% 2-pyrrolidinone, 40% PEG400, 20% deionized water or 83.4% 2-pyrrolidinone/polyvinylpyrrolidone (PVP), 16.6% saline or 80% 2-pyrrolidinone/NMP/PVP, 20% (0.05% 2-propanol in saline) to male SD rats (n=3).
# Compound 2 was dosed IV at 3 mg free base/kg (dose volume 1 mL/kg; dose vehicle: 10% DMSO, 40% PEG400 and 50% deionized water) or IM at 5, 10 and 20 mg free base/kg (dose volume 0.2 […]
# and 0.4 mL/kg; dose vehicle 10% NMP, 30% 2-pyrrolidinone, 40% PEG400, 20% deionized water or 83.4% 2-pyrrolidinone/polyvinylpyrrolidone (PVP), 16.6% saline or 80% 2-pyrrolidinone/NMP/PVP, 20% 0.05% 2-propanol in saline or 40% 0.3M Acetate Buffer, 20% Kolliphor, 20% glycerol formal, 20% 2-pyrrolidinone or 40% 0.3M Acetate Buffer, 20% glycerol formal, 20% 2-pyrrolidinone) to male SD rats (n=3). […]
# Compound 2 was dosed IM at 10 mg free base/kg (dose volume 2 mL/10 kg; dose vehicle 40% 0.3 M Acetate Buffer, 20% Kolliphor EL, 20% glycerol formal, 20% 2-pyrrolidone) or IV at 2 mg free base/kg (dose volume 0.4 mL/10 kg; 40% 0.3 M Acetate Buffer, 20% Kolliphor EL, 20% glycerol formal, 20% 2-pyrrolidone) to male ruminating Holstein-Friesian cross animals (n = 3). Blood samples were taken from each animal using 18-G needles into EDTA (K2) vacutainers before dosing […]
# into a cool box containing iced water and were processed within 2 h of collection.
# 2.8 Formulation and tolerability studies for compound 2 (NorthWest Biopharm) A study to identify alternative formulations was conducted. Compound 2, either as the hydrochloride salt or free base, was screened to identify a 50 mg/mL soluble formulation suitable for injection. […]
# Kolliphor EL, N-methyl pyrrolidone, 2-pyrrolidone and 11% water at 5 mg/kg was assessed, IM […]
# A screen of salt forms as alternatives to the hydrochloride was carried out at Drugabilis. Ten pharmaceutically acceptable counter ions were assessed and three were selected for further study […]
# (citrate, fumarate and phosphate) (Figure 9). These alternative salt forms of compound 2 were prepared and formulated in the best vehicle determined by injection site tolerability analysis (0.3M sodium acetate buffer, Kolliphor EL, N-methyl pyrrolidone, 2-pyrrolidone, and 11% water suitable for injection). […]
structure (smiles),measurement,setting,value
"CC(C)CS(=O)(=O)N[C@H]1CC[C@H](Nc2nc(N)c(C(=O)c3c(F)cccc3F)s2)CC1 [Compound 1, N-((trans)-4-((4-Amino-5-(2,6-difluorobenzoyl)thiazol-2-yl)amino)cyclohexyl)-2-methylpropane-1-sulfonamide]",Mouse Microsome Cli,[1],11 mL/min/g
same,Cmax,"[2]; male, blood, Sprague Dawley rats, 10% NMP, 30% 2-pyrrolidinone, 40% PEG400, 20% water, mean",92 ng/mL
same,AUC(0-t),"[2]; male, blood, Sprague Dawley rats, 10% NMP, 30% 2-pyrrolidinone, 40% PEG400, 20% water, mean, read-out: AUC0-8 (converted)",354 ng·h/mL
same,Time at which free concentration in blood <EC99,"[2]; formulation A: 83.4% PVP/2-pyrrolidone, 16.6% saline",3 h
same,Time at which free concentration in blood <EC99,[2]; formulation B: 80% vehicle 1 (NMP:2-pyrrolidone): 20% vehicle 2,4 h
